One test has as its target T1, G1 APOL1 (Homo sapiens, UniProt O14791, I384M/S342G).
T1 construct: expressed in transfected cells
T1 sequence (O14791 28-398 S342G/I384M): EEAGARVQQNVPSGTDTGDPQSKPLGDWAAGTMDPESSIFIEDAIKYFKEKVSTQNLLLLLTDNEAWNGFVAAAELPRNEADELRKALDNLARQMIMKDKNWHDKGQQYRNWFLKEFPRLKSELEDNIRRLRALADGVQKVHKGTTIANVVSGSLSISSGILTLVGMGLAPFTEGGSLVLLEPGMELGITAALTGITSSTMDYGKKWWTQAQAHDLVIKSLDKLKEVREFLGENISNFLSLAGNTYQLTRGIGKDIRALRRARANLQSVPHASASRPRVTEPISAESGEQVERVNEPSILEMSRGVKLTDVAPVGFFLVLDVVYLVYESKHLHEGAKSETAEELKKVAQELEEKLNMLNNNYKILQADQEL
The test is described as follows: Acute APOL1 Thallium Assay with inducible stable clones of HEK 293 cells. The format is cell-based. Conditions: HEK 293 T-Rex inducible stable clone expressing G1 APOL1; read-out: Thallium Assay (IC50). An outline of the steps: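 A tetracycline-inducible HEK293 T-Rex clone (G1 DC3.25) expressing G1 APOL1 was plated at 26,000 cells/well, with tetracycline added at plating to induce expression. Cells were loaded with an AM-ester thallium-sensitive dye and stimulated with Tl+. Pore activity was read as the FLIPR Tetra fluorescence increase from Tl+ influx.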

A further test deals with T2, APOL1 G1 Protein (Homo sapiens, UniProt O14791, I384M/S342G).
T2 sequence (O14791 28-398 S342G/I384M): T1 sequence (O14791 28-398 S342G/I384M)
The test is described as follows: Trypanosoma brucei brucei lysis assay using APOL1 recombinant protein (AlamarBlue viability). The format is cell-based. Conditions: Trypanosoma brucei brucei lysis with recombinant APOL1 protein. (In general: The colour change of resazurin is a common sign of viable cells or microbes.)

These results are taken from US12281102B2, “Inhibitors of APOL1 and methods of using same” (Vertex Pharmaceuticals Incorporated, priority 2020, dated 2025).

pIC50: −log10 of the molar value.

Turning to `COCCNCC1CC(c2c(-c3ccc(F)cc3)[nH]c3c(F)cc(F)cc23)C1` (centres unmarked) [Compound 375], the pIC50 on G1 APOL1 and at APOL1 G1 Protein was greater than 6.60 throughout.
`OCCNCC1CC(c2c(-c3ccc(F)cc3)[nH]c3c(F)cc(F)cc23)C1` (centres unmarked) [Compound 374, 2-[[3-[5,7-difluoro-2-(4-fluorophenyl)-1H-indol-3-yl]cyclobutyl]methylamino]ethanol]: the negative-log IC50 (pIC50) at G1 APOL1 and at APOL1 G1 Protein was greater than 6.60 each time.
For `NC1CC2(C1)CC(c1c(-c3ccc(F)cc3)[nH]c3c(F)cc(F)cc13)C2` (centres unmarked) [Compound 432, 6-[5,7-difluoro-2-(4-fluorophenyl)-1H-indol-3-yl]spiro[3.3]heptan-2-amine], the pIC50 on G1 APOL1 was less than 6.00; at APOL1 G1 Protein, greater than 6.60.
Turning to `CC(=O)N1CCC(Cc2c(-c3ccc(F)cc3)[nH]c3c(F)cc(F)cc23)C1` (centres unmarked) [Compound 444, 1-(3-((5,7-difluoro-2-(4-fluorophenyl)-1H-indol-3-yl)methyl)pyrrolidin-1-yl)ethan-1-one], the negative logarithm of the IC50 (pIC50) at G1 APOL1 was less than 6.00; on APOL1 G1 Protein, 6.00 to 6.60.
On the same counts, the results for `NCC1(O)CC(c2c(-c3ccc(F)cc3)[nH]c3c(F)cc(F)cc23)C1` (centres unmarked) [Compound 427, 1-(aminomethyl)-3-[5,7-difluoro-2-(4-fluorophenyl)-1H-indol-3-yl]cyclobutanol] are 6.00 to 6.60 and greater than 6.60.
For `O=C(CO)NCC1CC(c2c(-c3ccc(F)cc3)[nH]c3c(F)cc(F)cc23)C1` (centres unmarked) [Compound 214], in that order: 6.00 to 6.60 and 6.00 to 6.60.
On the same counts, the results for `CC(C)(O)CC(=O)NC1CC(c2c(-c3ccc(F)cc3)[nH]c3c(F)cc(F)cc23)C1` (centres unmarked) [Compound 16, N-[3-[5,7-difluoro-2-(4-fluorophenyl)-1H-indol-3-yl]cyclobutyl]-3-hydroxy-3-methyl-butanamide] are 6.00 to 6.60 and 6.00 to 6.60.
As to `N[C@H]1CC[C@H](c2c(-c3ccc(F)cc3)[nH]c3c(F)cc(F)cc32)CC1` (single isomer, unassigned) [Compound 434, Trans-4-[5,7-difluoro-2-(4-fluorophenyl)-1H-indol-3-yl]cyclohexanamine], the pIC50 at G1 APOL1 is 6.00 to 6.60; at APOL1 G1 Protein, greater than 6.60.
For `NC[C@H]1C[C@H](c2c(-c3ccc(F)cc3)[nH]c3c(F)cc(F)cc32)C1` [Compound 188, ((1r,3r)-3-(5,7-difluoro-2-(4-fluorophenyl)-1H-indol-3-yl)cyclobutyl)methanamine], in that order: greater than 6.60 and greater than 6.60.
For `O=C(C1CCO1)N1CCC(Cc2c(-c3ccc(F)cc3)[nH]c3c(F)cc(F)cc23)C1` (centres unmarked) [Compound 443, [3-[[5,7-difluoro-2-(4-fluorophenyl)-1H-indol-3-yl]methyl]pyrrolidin-1-yl]-(oxetan-2-yl)methanone], in that order: 6.00 to 6.60 and 6.00 to 6.60.
On the same counts, the results for `COc1ccc(-c2[nH]c3c(F)cc(F)cc3c2C2CC(CN)C2)cc1` (centres unmarked) [Compound 183] are greater than 6.60 and greater than 6.60.
As to `Cc1ccc(-c2[nH]c3c(F)cc(F)cc3c2C2CC(N)C2)cc1` (mixture of isomers) [Compound 4, 3-[5,7-difluoro-2-(p-tolyl)-1H-indol-3-yl]cyclobutanamine], the pIC50 at G1 APOL1 and at APOL1 G1 Protein was greater than 6.60 throughout.
For the compound `COc1ccc(-c2[nH]c3c(F)cc(F)cc3c2C2CC(N)C2)cc1` (mixture of isomers) [Compound 12, 3-[5,7-difluoro-2-(4-methoxyphenyl)-1H-indol-3-yl]cyclobutanamine], the pIC50 on G1 APOL1 was 6.00 to 6.60; on APOL1 G1 Protein it was greater than 6.60.
For `NC1CC(c2c(-c3ccc(F)cc3)[nH]c3c(F)cccc23)C1` (centres unmarked) [Compound 6, 3-[7-fluoro-2-(4-fluorophenyl)-1H-indol-3-yl]cyclobutanamine], in that order: 6.00 to 6.60 and greater than 6.60.
For `OCC1CC(c2c(-c3ccc(F)cc3)[nH]c3c(F)cc(F)cc23)C1` (centres unmarked) [Compound 424, [3-[5,7-difluoro-2-(4-fluorophenyl)-1H-indol-3-yl]cyclobutyl]methanol], in that order: greater than 6.60 and greater than 6.60.
On the same counts, the results for `Cc1ccc(-c2[nH]c3c(F)cc(F)cc3c2C2CC(CN)C2)cc1` (centres unmarked) [Compound 184] are greater than 6.60 and greater than 6.60.
As to `O=C(CO)NC1CC(c2c(-c3ccc(F)cc3)[nH]c3c(F)cc(F)cc23)C1` (centres unmarked) [Compound 15, N-[3-[5,7-difluoro-2-(4-fluorophenyl)-1H-indol-3-yl]cyclobutyl]-2-hydroxy-acetamide], the results for the pIC50 on G1 APOL1 and at APOL1 G1 Protein were greater than 6.60 and 6.00 to 6.60, respectively.
For `COCC(=O)NC1CC(c2c(-c3ccc(F)cc3)[nH]c3c(F)cc(F)cc23)C1` (centres unmarked) [Compound 18, N-[3-[5,7-difluoro-2-(4-fluorophenyl)-1H-indol-3-yl]cyclobutyl]-2-methoxy-acetamide], in that order: 6.00 to 6.60 and 6.00 to 6.60.
On the same counts, the results for `NCC1CC(c2c(-c3ccc(OC(F)F)cc3)[nH]c3c(F)cc(F)cc23)C1` (centres unmarked) [Compound 182] are greater than 6.60 and greater than 6.60.
`CC1(CN)CC(c2c(-c3ccc(F)cc3)[nH]c3c(F)cc(F)cc23)C1` (centres unmarked) [Compound 426, [3-[5,7-difluoro-2-(4-fluorophenyl)-1H-indol-3-yl]-1-methyl-cyclobutyl]methanamine]: the negative-log IC50 (pIC50) is 6.00 to 6.60 at G1 APOL1 and greater than 6.60 on APOL1 G1 Protein.
For `NCC1CC(c2c(-c3ccc(F)cc3)[nH]c3c(F)cc(F)cc23)C1` (mixture of isomers) [Compound 186, (3-(5,7-difluoro-2-(4-fluorophenyl)-1H-indol-3-yl)cyclobutyl)methanamine], in that order: greater than 6.60 and greater than 6.60.
For `NC1CC(c2c(-c3ccc(Cl)cc3)[nH]c3c(F)cc(F)cc23)C1` (mixture of isomers) [Compound 10, 3-[2-(4-chlorophenyl)-5,7-difluoro-1H-indol-3-yl]cyclobutanamine], in that order: greater than 6.60 and greater than 6.60.
On the same counts, the results for `NCC1CC(c2c(-c3ccc(Cl)cc3)[nH]c3c(F)cc(F)cc23)C1` (mixture of isomers) [Compound 176, (3-(2-(4-chlorophenyl)-5,7-difluoro-1H-indol-3-yl)cyclobutyl)methanamine] are greater than 6.60 and greater than 6.60.
For the compound `N#Cc1ccc(-c2[nH]c3c(F)cc(F)cc3c2C2CC(CN)C2)cc1` (centres unmarked) [Compound 185], the pIC50 at G1 APOL1 and at APOL1 G1 Protein was greater than 6.60 in each case.
Turning to `CC(=O)OC1CC(c2c(-c3ccc(F)cc3)[nH]c3c(F)cc(F)cc23)C1` (mixture of isomers) [Compound 173, [3-[5,7-difluoro-2-(4-fluorophenyl)-1H-indol-3-yl]cyclobutyl]acetate], the figures for the pIC50 on G1 APOL1 and at APOL1 G1 Protein were 6.00 to 6.60 and greater than 6.60, respectively.
On the same counts, the results for `CC(=O)NC1CC(c2c(-c3ccc(F)cc3)[nH]c3c(F)cc(F)cc23)C1` (centres unmarked) [Compound 17, N-[3-[5,7-difluoro-2-(4-fluorophenyl)-1H-indol-3-yl]cyclobutyl]acetamide] are 6.00 to 6.60 and 6.00 to 6.60.
Consider `NCC1CC(c2c(-c3ccc(OC(F)(F)F)cc3)[nH]c3c(F)cc(F)cc23)C1` (centres unmarked) [Compound 180], for which the pIC50 on G1 APOL1 and at APOL1 G1 Protein was greater than 6.60 throughout.
`O[C@H]1C[C@H](c2c(-c3ccc(F)cc3)[nH]c3c(F)cc(F)cc32)C1` [Compound 174, (1r,3r)-3-(5,7-difluoro-2-(4-fluorophenyl)-1H-indol-3-yl)cyclobutan-1-ol]: the negative logarithm of the IC50 (pIC50) on G1 APOL1 and on APOL1 G1 Protein was greater than 6.60 throughout.

One may read the pIC50 as the negative decadic logarithm of the IC50, by convention in mol/L.
